Data on eleven compounds can be found in PubChem BioAssay (NCI).

Molecules are shown by their SMILES. Values joined by “and” are separate entries in the source; they are usually repeats but may differ in a detail not shown here. Identical values can stand only once.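 Test compounds were applied to cells in 96-well plates for 48 hours at 5 doses. GI50 = concentration required for 50% inhibition of growth. TGI: total growth inhibition.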 Bounds are passed on as bounds.

Among the test systems are CAKI-1 renal; CCRF-CEM leukemia; HCT-15 colon; NCI-H23 lung; NCI-H522 lung; OVCAR-5 ovarian; SF-539 CNS; SNB-75 CNS; U251 CNS; SK-MEL-5 melanoma.
Assay in all cases: NCI-60 cell line screen, 48 h

`CCCCCCCC[C@@H](O)CC(=O)N[C@@H](CC(N)=O)C(=O)N[C@@H](CCC(N)=O)C(=O)N[C@@H](CC(=O)c1cc(C)cc(O)c1C(=O)c1c(O)cccc1O)CC(C)C`: the GI50 was 1.51 µM with CAKI-1 renal; 0.398 µM with CCRF-CEM leukemia; 2.25 µM with HCT-15 colon; 1.36 µM in the experiment with NCI-H23 lung; 0.228 µM in the experiment on NCI-H522 lung; 0.253 µM in the experiment with SF-539 CNS. The GI50 is 0.199 µM with SNB-75 CNS and 0.265 µM in the experiment with U251 CNS. Moreover, the TGI in the experiment with CAKI-1 renal was greater than 100 µM; in the experiment with CCRF-CEM leukemia, greater than 100 µM; in the experiment with HCT-15 colon it was 23.8 µM; in the experiment with NCI-H23 lung, 14.8 µM; in the experiment on NCI-H522 lung it was 0.815 µM; in the experiment with OVCAR-5 ovarian it was 27.7 µM. The TGI in the experiment on SF-539 CNS is 0.783 µM; in the experiment with SNB-75 CNS, 0.585 µM; in the experiment with U251 CNS, 2.33 µM.

In the case of `CN(C)CCNC(=O)c1cccc2ccc(-c3ccncc3)nc12`, the TGI in the experiment with CAKI-1 renal is 5.21 µM; in the experiment on CCRF-CEM leukemia it was 15.5 µM; in the experiment with HCT-15 colon, 11.9 µM; with NCI-H23 lung, 5.31 µM; in the experiment on OVCAR-5 ovarian, 5.63 µM; in the experiment with SF-539 CNS, 9.64 µM. In addition, the TGI in the experiment with SK-MEL-5 melanoma worked out at 3.54 µM; with SNB-75 CNS, 9.9 µM; with U251 CNS it was 8.75 µM.

As to `CCOC(=S)SSSC(=S)OCC`, the TGI was greater than 100 µM in the experiment with CAKI-1 renal; greater than 100 µM in the experiment on CCRF-CEM leukemia; 46.8 µM with HCT-15 colon; greater than 100 µM with NCI-H23 lung; 86.6 µM in the experiment on OVCAR-5 ovarian; greater than 100 µM in the experiment with SF-539 CNS. Besides, the TGI in the experiment with SK-MEL-5 melanoma, in the experiment with SNB-75 CNS and in the experiment with U251 CNS was greater than 100 µM each time.

For `CCOCC(=O)N[C@H]1CCc2cc(OC)c(OC)c(OC)c2-c2ccc(OC)c(=O)cc21`, the TGI was 30.1 µM with CAKI-1 renal; greater than 100 µM with CCRF-CEM leukemia; 19.1 µM with HCT-15 colon; 0.178 µM with NCI-H23 lung; 0.0768 µM with NCI-H522 lung; greater than 100 µM in the experiment on OVCAR-5 ovarian. In addition, the figures for the TGI in the experiment on SF-539 CNS, in the experiment on SK-MEL-5 melanoma and in the experiment with U251 CNS were 0.0328 µM, 0.36 µM and 8.9 µM, respectively.

For the compound `N#CC(C#N)=C1Nc2ccccc2S1`, the GI50 is 24.5 µM in the experiment with CAKI-1 renal; 45.5 µM in the experiment with CCRF-CEM leukemia; 48 µM with HCT-15 colon; 22.4 µM with NCI-H23 lung; 32.4 µM in the experiment on NCI-H522 lung; 36.3 µM in the experiment with SF-539 CNS. Moreover, the GI50 was 22.7 µM in the experiment with SK-MEL-5 melanoma and 43.6 µM in the experiment with U251 CNS. In addition, the TGI with CAKI-1 renal is 70.9 µM; in the experiment on CCRF-CEM leukemia, greater than 100 µM; in the experiment with HCT-15 colon it was greater than 100 µM; in the experiment with NCI-H23 lung, 45.9 µM; with NCI-H522 lung it was greater than 100 µM; in the experiment on SF-539 CNS, 93.7 µM. Moreover, the TGI was 44.8 µM in the experiment on SK-MEL-5 melanoma and greater than 100 µM with U251 CNS.

As for `CCCC1N2CCCCC2[C@@H]2c3[nH]c4ccccc4c3CCN12` (stereo not given in full), the TGI with CAKI-1 renal, in the experiment on CCRF-CEM leukemia, with HCT-15 colon, in the experiment on NCI-H23 lung, with OVCAR-5 ovarian and in the experiment with SF-539 CNS was greater than 100 µM throughout. The TGI in the experiment on SK-MEL-5 melanoma, in the experiment with SNB-75 CNS and in the experiment on U251 CNS was greater than 100 µM throughout.

Consider `O=C(O)C(CS)Nc1c2ccccc2nc2ccccc12` (stereo not given), for which the TGI in the experiment with CAKI-1 renal, in the experiment on CCRF-CEM leukemia, in the experiment with HCT-15 colon, in the experiment with NCI-H23 lung, in the experiment with NCI-H522 lung and with OVCAR-5 ovarian was greater than 100 µM in each case. Besides, the TGI with SF-539 CNS, in the experiment on SNB-75 CNS and in the experiment with U251 CNS was greater than 100 µM each time.

With `Cc1ccc(-c2nc3nc(-c4ccccc4)nc(N4CCCNCC4)c3o2)cc1`, the GI50 in the experiment on CAKI-1 renal was 1.73 µM; in the experiment with CCRF-CEM leukemia it was 1.89 µM; in the experiment on HCT-15 colon it was 1.58 µM; in the experiment with NCI-H23 lung it was 1.89 µM; with NCI-H522 lung it was 1.73 µM; in the experiment on OVCAR-5 ovarian, 1.89 µM. Also, the results for the GI50 with SF-539 CNS, with SNB-75 CNS and in the experiment on U251 CNS were 1.82 µM, 1.36 µM and 1.54 µM, respectively. Moreover, the TGI came to 3.22 µM with CAKI-1 renal; 4.23 µM with CCRF-CEM leukemia; 3.23 µM with HCT-15 colon; 3.8 µM with NCI-H23 lung; 3.39 µM in the experiment with NCI-H522 lung; 3.37 µM with OVCAR-5 ovarian. Besides, the TGI in the experiment on SF-539 CNS was 3.31 µM; in the experiment on SNB-75 CNS it was 2.68 µM; with U251 CNS it was 2.91 µM.

With `O=C(N/C(=C\c1cccc([N+](=O)[O-])c1)c1nc2ccc([N+](=O)[O-])cc2[nH]1)c1ccccc1`, the TGI is greater than 100 µM in the experiment on CAKI-1 renal; 87.6 µM in the experiment with CCRF-CEM leukemia; greater than 100 µM in the experiment with HCT-15 colon; greater than 100 µM with NCI-H23 lung; 52.9 µM with NCI-H522 lung; greater than 100 µM in the experiment with OVCAR-5 ovarian. The TGI in the experiment with SF-539 CNS was greater than 100 µM; with SK-MEL-5 melanoma it was 43.7 µM; with U251 CNS, greater than 100 µM.

Consider `COc1cc(C(=O)CBr)c(OC)cc1C`, for which the TGI with CAKI-1 renal, in the experiment with CCRF-CEM leukemia, in the experiment with HCT-15 colon, in the experiment on NCI-H23 lung, with NCI-H522 lung and in the experiment on OVCAR-5 ovarian was greater than 100 µM throughout. The TGI in the experiment with SF-539 CNS, in the experiment with SK-MEL-5 melanoma and with U251 CNS was greater than 100 µM each time.

Turning to `O=C1C(Cl)=C(NCCN2CCOCC2)C(=O)c2ncccc21`, the GI50 in the experiment with CAKI-1 renal is 1.92 µM; in the experiment on CCRF-CEM leukemia it was 2.34 µM; in the experiment on HCT-15 colon, 1.68 µM; in the experiment with NCI-H23 lung it was 1.25 µM; in the experiment with SK-MEL-5 melanoma it was 1.72 µM; with SNB-75 CNS, 1.67 µM. For the same compound, in the experiment on U251 CNS, the GI50 was 1.87 µM. The TGI is 3.72 µM with CAKI-1 renal; 2.68 µM and 5.29 µM in the experiment with CCRF-CEM leukemia; 4.17 µM and 3.62 µM in the experiment with HCT-15 colon; 3.75 µM and 3.52 µM in the experiment on NCI-H23 lung; 3.59 µM and 3.56 µM in the experiment on OVCAR-5 ovarian; 3.33 µM in the experiment on SF-539 CNS. Further, the TGI in the experiment with SK-MEL-5 melanoma was 2.32 µM and 3.16 µM; in the experiment on SNB-75 CNS, 2.85 µM and 3.58 µM; in the experiment on U251 CNS, 3.12 µM and 3.3 µM.
